System: skin of the volunteers (volar surface of the forearm)
Experiment: Keratolytic activity: desquamation index after occlusive Finn chamber application, Protocol c)
Assay type: in vivo, human
Description: Under Protocol c) a study was carried out aimed to evaluate the Keratolytic activity of a raw, fermented papaya material for cosmetic use. The study was carried out according to a double-blinded protocol with randomisation of the application sites. Under the test, irritating products were applied to the skin of the volunteers by means of an occlusive chamber (Finn chamber, Ø 7.0 mm) containing a disc of absorbing paper wetted with a known quantity (20 μl) of product. The exposure time to the irritating product (Salicylic acid at 1.5, 3.0 and 5.0% (w/v) concentration) was 3 and 6 hours. The application site of the irritating products selected for study purposes was the volar surface of the forearm. The products were applied on the skin of the volunteers for 3 and 6 hours. • b) desquamation index on the images acquired with Comeofix® tape and Visioscan® (Courage+Khazaka electronic GmbH). Desquamation index was calculated as: DI=[2A+(T1·(1−1)+T2·(2−1)+ . . . +Tn·(n−1)]/(n+1) • The variation was calculated as: [formula] I.D. [X]0: Basal desquamation index; I.D. [X]x: Desquamation index at the x concentration (1.5, 3.0 and 5.0%) of fermented papaya or salicylic acid.

`O=C(O)c1ccccc1O` [SALICYLIC ACID, Salicylic acid] was tested, and the “Variation of desquamation index” value (1.5% solution, 3 h application) was 2.58 ± 0.24, the “Variation of desquamation index” value (1.5% solution, 6 h application) was 2.71 ± 0.36 and the “Variation of desquamation index” value (3.0% solution, 3 h application) was 3.12 ± 0.24. The “Variation of desquamation index” value (3.0% solution, 6 h application) was 3.24 ± 0.38, the “Variation of desquamation index” value (5.0% solution, 3 h application) was 3.25 ± 0.26 and the “Variation of desquamation index” value (5.0% solution, 6 h application) was 3.59 ± 0.43. The “change of desquamation index” value (both after 3.0 and 6.0 hours of application, result in words) was “increase”, the “application time at which the maximum keratolytic action was reached” value (statistical analysis) was 3 h and the “concentration at which the maximum keratolytic action was reached” value (statistical analysis) was 3.0%.
